Values after ≈ are worked out from the molar mass of the structure shown. Active and inactive are the calls of the source. The calls are words filed in the database; no cut-off is given here.
Key:
Staphylococcus aureus [1] = test: Antibacterial activity against methicillin-sensitive Staphylococcus aureus CCARM3505 after 24 hrs; type: functional
Staphylococcus aureus [2] = test: Antibacterial activity against methicillin-resistant Staphylococcus aureus CCARM3167 after 24 hrs; type: functional
Staphylococcus aureus [3] = test: Antibacterial activity against Staphylococcus aureus 503 after 24 hrs; type: functional
Staphylococcus aureus [4] = test: Antibacterial activity against methicillin-sensitive Staphylococcus aureus CCARM3519 after 24 hrs; type: functional
Staphylococcus aureus [5] = test: Antibacterial activity against methicillin-resistant Staphylococcus aureus CCARM3506 after 24 hrs; type: functional
Staphylococcus aureus [6] = test: Antibacterial activity against Staphylococcus aureus RN4220 after 24 hrs; type: functional; details: RN4220, 24 h
Staphylococcus aureus [7] = test: Antibacterial activity against methicillin-resistant Staphylococcus aureus CCARM3167 up to 100 ug/mL after 24 hrs; type: functional, organism-based
Staphylococcus aureus [8] = test: Antibacterial activity against Staphylococcus aureus RN4220 up to 100 ug/mL after 24 hrs; type: functional, organism-based
Staphylococcus aureus [9] = test: Antibacterial activity against methicillin-sensitive Staphylococcus aureus CCARM3519 up to 100 ug/mL after 24 hrs; type: functional, organism-based
Staphylococcus aureus [10] = test: Antibacterial activity against Staphylococcus aureus 503 up to 100 ug/mL after 24 hrs; type: functional, organism-based
Staphylococcus aureus [11] = test: Antibacterial activity against methicillin-sensitive Staphylococcus aureus CCARM3505 up to 100 ug/mL after 24 hrs; type: functional, organism-based
Staphylococcus aureus [12] = test: Antibacterial activity against methicillin-resistant Staphylococcus aureus CCARM3506 up to 100 ug/mL after 24 hrs; type: functional, organism-based

## CC(O)[C@@]12SS[C@]3(C(=O)N1C)[C@@H](O)C1([C@@]45c6ccccc6N[C@@H]4N4C(=O)[C@]6(C(C)O)SS[C@]4(C(=O)N6C)[C@H]5O)c4ccccc4N[C@@H]1N3C2=O (stereo not given in full) [VERTICILLIN D]
Staphylococcus aureus [1]
  MIC: 10 µg/mL (≈ 13.2 µM)
Staphylococcus aureus [2]
  MIC: 3 µg/mL (≈ 3.96 µM)
Staphylococcus aureus [3]
  MIC: 3 µg/mL (≈ 3.96 µM)
Staphylococcus aureus [4]
  MIC: 10 µg/mL (≈ 13.2 µM)
Staphylococcus aureus [5]
  MIC: 3 µg/mL (≈ 3.96 µM)
Staphylococcus aureus [6]
  MIC: 3 µg/mL (≈ 3.96 µM)

## CN[C@H](CC(C)C)C(=O)N[C@H]1C(=O)N[C@@H](CC(N)=O)C(=O)N[C@H]2C(=O)N[C@H]3C(=O)N[C@H](C(=O)N[C@H](C(=O)O)c4cc(O)cc(O)c4-c4cc3ccc4O)[C@H](O)c3ccc(c(Cl)c3)Oc3cc2cc(c3O[C@@H]2O[C@H](CO)[C@@H](O)[C@H](O)[C@H]2O[C@H]2C[C@](C)(N)[C@H](O)[C@H](C)O2)Oc2ccc(cc2Cl)[C@H]1O [VANCOMYCIN]
Staphylococcus aureus [3]
  MIC: 0.25 µg/mL (≈ 0.173 µM)

## CC(O)[C@@]12SS[C@]3(C(=O)N1C)[C@@H](O)[C@]1(c4c[nH]c5ccccc45)c4ccccc4N[C@@H]1N3C2=O (stereo not given in full) [BIONECTIN B]
Staphylococcus aureus [1]
  MIC: 30 µg/mL (≈ 60.7 µM)
Staphylococcus aureus [2]
  MIC: 10 µg/mL (≈ 20.2 µM)
Staphylococcus aureus [3]
  MIC: 30 µg/mL (≈ 60.7 µM)
Staphylococcus aureus [4]
  MIC: 30 µg/mL (≈ 60.7 µM)
Staphylococcus aureus [5]
  MIC: 10 µg/mL (≈ 20.2 µM)
Staphylococcus aureus [6]
  MIC: 30 µg/mL (≈ 60.7 µM)

## CS[C@H]1C(=O)N2[C@H]3Nc4ccccc4[C@@]3(c3c[nH]c4ccccc34)[C@H](O)[C@]2(SC)C(=O)N1C
Staphylococcus aureus [7]
  Activity: inactive
Staphylococcus aureus [8]
  Activity: inactive
Staphylococcus aureus [9]
  Activity: inactive
Staphylococcus aureus [10]
  Activity: inactive
Staphylococcus aureus [11]
  Activity: inactive
Staphylococcus aureus [12]
  Activity: inactive

## CN1C(=O)[C@]23SS[C@H]1C(=O)N2[C@H]1Nc2ccccc2[C@@]1(c1c[nH]c2ccccc12)[C@@H]3O [BIONECTIN A]
Staphylococcus aureus [1]
  MIC: 10 µg/mL (≈ 22.2 µM)
Staphylococcus aureus [2]
  MIC: 30 µg/mL (≈ 66.6 µM)
Staphylococcus aureus [3]
  MIC: 10 µg/mL (≈ 22.2 µM)
Staphylococcus aureus [4]
  MIC: 10 µg/mL (≈ 22.2 µM)
Staphylococcus aureus [5]
  MIC: 30 µg/mL (≈ 66.6 µM)
Staphylococcus aureus [6]
  MIC: 10 µg/mL (≈ 22.2 µM)

From ChEMBL document CHEMBL1158142, “Bionectins A-C, epidithiodioxopiperazines with anti-MRSA activity, from Bionectra byssicola F120” (2006)
